The values that follow come from PMC8125440, “A Novel N-Tert-Butyl Derivatives of Pseudothiohydantoin as Potential Target in Anti-Cancer Therapy” (Molecules, 2021).

Assay [1] has as its target T1, 11β-hydroxysteroid dehydrogenase type 1 (11β-HSD1) (Homo sapiens, UniProt P28845).
T1 construct: gene HSD11B1
Briefly: cortisone to cortisol conversion in pooled human liver microsomes, cortisol ELISA. It counts as cell-based.

For assay [2], the target named is T2, 11β-hydroxysteroid dehydrogenase type 2 (11β-HSD2) (Homo sapiens, UniProt P80365).
T2 construct: gene HSD11B2
T2 sequence (P80365 1-405): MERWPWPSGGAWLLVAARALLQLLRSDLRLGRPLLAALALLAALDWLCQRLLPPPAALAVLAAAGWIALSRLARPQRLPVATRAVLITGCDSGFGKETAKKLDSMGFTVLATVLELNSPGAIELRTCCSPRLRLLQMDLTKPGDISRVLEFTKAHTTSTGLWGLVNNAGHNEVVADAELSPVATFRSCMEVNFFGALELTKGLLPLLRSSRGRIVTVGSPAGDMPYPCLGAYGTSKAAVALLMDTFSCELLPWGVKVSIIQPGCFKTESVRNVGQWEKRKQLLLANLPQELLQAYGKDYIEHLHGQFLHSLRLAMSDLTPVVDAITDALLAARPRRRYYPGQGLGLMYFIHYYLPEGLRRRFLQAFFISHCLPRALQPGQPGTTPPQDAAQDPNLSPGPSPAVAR
Briefly: cortisol to cortisone conversion in human kidney microsomes, cortisol ELISA. It counts as cell-based.

T1 sequence (P28845 whole entry): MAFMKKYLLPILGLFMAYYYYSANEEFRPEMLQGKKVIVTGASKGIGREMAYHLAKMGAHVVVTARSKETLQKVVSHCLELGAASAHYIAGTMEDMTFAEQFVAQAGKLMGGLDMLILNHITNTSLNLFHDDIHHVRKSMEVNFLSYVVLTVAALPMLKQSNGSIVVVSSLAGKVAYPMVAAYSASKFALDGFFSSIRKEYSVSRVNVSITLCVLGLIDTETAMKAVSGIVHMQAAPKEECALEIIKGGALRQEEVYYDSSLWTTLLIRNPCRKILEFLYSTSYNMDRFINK

The inhibition is the percentage by which the read-out fell short of the control. Low readings indicate a response near the control, high ones a response far below the control. `CC(C)(C)NC1=NC(=O)C2(CCCCC2)S1` [3h, 2-(tert-Butylamino)-1-thia-3-azaspiro[4.5]dec-2-en-4-one] displayed an inhibition at 10 µM in assay [1] of 82.5%. On to `CC(C)(C)NC1=NC(=O)C(c2ccccc2)S1` (centres unmarked) [3f, 2-(tert-Butylamino)-5-phenylthiazol-4(5H)-one], for which, in assay [2], testing at 10 µM gave an inhibition of 53.6%.
